Assay results taken from patent US10538532B2, “Hepatitis B antiviral agents” (ENANTA PHARMACEUTICALS, INC., priority 2016, dated 2020).
Like-named read-outs stand apart in the source and are kept apart here.

What was measured:
HBV = test: HepAD38 antiviral assay: reduction of viral product accumulation (virion DNA by qPCR, HBsAg or HBeAg by ELISA); type: cell-based, hepatitis B virus; details: HepAD38 cells, five days after compound addition, concentration reducing viral product accumulation by 50% relative to no drug controls, read-out: HepAD38 EC50
Procedure, shortened: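 HepAD38 cells were washed free of tetracycline, plated at 35,000 cells/well and given compounds diluted 1:200 from DMSO. After 5 days, or 8 days with media and compound refreshed on d2 and d5, virion DNA was measured by qPCR and HBsAg or HBeAg by ELISA. EC50 is the concentration giving 50% reduction of viral product versus no-drug controls.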

[1] = Compound toxicity, ATPLite total ATP levels; type: cell-based; details: human, HepAD38 cells, three days after compound addition, concentration reducing total ATP levels by 50% relative to no drug controls
Method: Methods: HepAD38 cells are maintained as previously reported (Ladner et al, Antimicrob. Agents Chemother. 1997, […], 1715). Briefly, cells are passaged upon attaining confluency in DMEM/F12 media in the presence of 10% FBS, Penn/Strep, 250 μg/mL G418, and 1 ug/ml tetracycline. Novel compounds are screened by first washing cells three times with PBS to remove tetracycline, and plating in 96 well plates at 35,000 cells/well. Compounds dissolved in DMSO are then diluted 1:200 into wells containing cells. Five days after compound addition, material is harvested for analysis. For an extended 8 day analysis, cells are plated and treated as described above, but media and compound are refreshed on d2 and d5 post initial treatment.
Compound toxicity is evaluated by seeding cells at 15,000 cells/well and treating with compound as described above.

[2] = Hepatitis B virus, HePAD38, 120 h

O=C(Nc1cc(F)c(F)c(F)c1)c1ccc(Cl)c(S(=O)(=O)[C@H]2C3CC[C@H]2C[C@@H](c2ncc[nH]2)C3)c1 [Example 283]
EC50 (HBV; [2]): 0.1 to 0.4 µM | CC50 at 3 days ([1]; class symbols): < 10 µM

N#C[C@H]1CC2CC[C@@H](C1)[C@H]2S(=O)(=O)c1cc(C(=O)Nc2cc(F)c(F)c(F)c2)ccc1Cl [Example 284]
EC50 (HBV; [2]): < 0.1 µM | CC50 at 3 days ([1]; numeric bounds): > 3.12 µM

O=C1NC[C@]2(CC3CC[C@@H](C2)[C@H]3S(=O)(=O)c2cc(C(=O)Nc3cc(F)c(F)c(F)c3)ccc2Cl)O1 [Example 285]
EC50 (HBV; [2]): 0.1 to 0.4 µM | CC50 at 3 days ([1]; class symbols): > 25 µM

[N-]=[N+]=NC[C@]1(O)CC2CC[C@@H](C1)[C@H]2S(=O)(=O)c1cc(C(=O)Nc2cc(F)c(F)c(F)c2)ccc1Cl [Example 286]
EC50 (HBV; [2]): < 0.1 µM | CC50 at 3 days ([1]; class symbols): 10 to 25 µM

[N-]=[N+]=N[C@]1(CO)CC2CC[C@@H](C1)[C@H]2S(=O)(=O)c1cc(C(=O)Nc2cc(F)c(F)c(F)c2)ccc1Cl [Example 287]
EC50 (HBV; [2]): 0.1 to 0.4 µM | CC50 at 3 days ([1]; class symbols): > 25 µM

COC(=O)N[C@H](C(=O)NC[C@@]1(O)CC2CC[C@@H](C1)[C@H]2S(=O)(=O)c1cc(C(=O)Nc2cc(F)c(F)c(F)c2)ccc1Cl)C(C)C [Example 288]
EC50 (HBV; [2]): 0.1 to 0.4 µM | CC50 at 3 days ([1]; class symbols): 10 to 25 µM

COC(=O)N1C[C@]2(CC3CC[C@@H](C2)[C@H]3S(=O)(=O)c2cc(C(=O)Nc3cc(F)c(F)c(F)c3)ccc2Cl)OC1=O [Example 289]
EC50 (HBV; [2]): 0.1 to 0.4 µM | CC50 at 3 days ([1]; numeric bounds): > 12.5 µM

C=CCOC(=O)OC[C@]1(O)CC2CC[C@@H](C1)[C@H]2S(=O)(=O)c1cc(C(=O)Nc2cc(F)c(F)c(F)c2)ccc1Cl [Example 290]
EC50 (HBV; [2]): < 0.1 µM | CC50 at 3 days ([1]; class symbols): > 25 µM

N#CC[C@]1(O)CC2CC[C@@H](C1)[C@H]2S(=O)(=O)c1cc(C(=O)Nc2cc(F)c(F)c(F)c2)ccc1Cl [Example 291]
EC50 (HBV; [2]): < 0.1 µM | CC50 at 3 days ([1]; class symbols): 10 to 25 µM

N#C[C@]1(CO)CC2CC[C@@H](C1)[C@H]2S(=O)(=O)c1cc(C(=O)Nc2cc(F)c(F)c(F)c2)ccc1Cl [Example 292]
EC50 (HBV; [2]): < 0.1 µM | CC50 at 3 days ([1]; class symbols): 10 to 25 µM

CS(=O)(=O)OC[C@@H]1CC2CC[C@@H](C1)[C@H]2S(=O)(=O)c1cc(C(=O)Nc2cc(F)c(F)c(F)c2)ccc1Cl [Example 293]
EC50 (HBV; [2]): < 0.1 µM | CC50 at 3 days ([1]; numeric bounds): > 6.25 µM

O=C(Nc1cc(F)c(F)c(F)c1)c1ccc(Cl)c(S(=O)(=O)[C@H]2CC3CCC(C2)[C@]3(O)CNS(=O)(=O)C2CC2)c1 [Example 294]
EC50 (HBV; [2]): < 0.1 µM | CC50 at 3 days ([1]; numeric bounds): > 6.25 µM

O=C(Nc1cc(F)c(F)c(F)c1)c1ccc(Cl)c(S(=O)(=O)[C@H]2CC3CCC(C2)[C@]3(O)CNS(=O)(=O)c2cccnc2)c1 [Example 295]
EC50 (HBV; [2]): < 0.1 µM | CC50 at 3 days ([1]; numeric bounds): > 12.5 µM

O=C(Nc1cc(F)c(F)c(F)c1)c1ccc(Cl)c(S(=O)(=O)[C@H]2CC3CCC(C2)[C@]3(O)CNS(=O)(=O)c2ccccn2)c1 [Example 296]
EC50 (HBV; [2]): < 0.1 µM | CC50 at 3 days ([1]; numeric bounds): > 6.25 µM

CC(C)(C)OC(=O)NC1CC2CC[C@@H](C1)[C@H]2S(=O)(=O)c1cc(C(=O)Nc2cc(F)c(F)c(F)c2)ccc1Cl (stereo partly shown) [Example 297]
EC50 (HBV; [2]): < 0.1 µM | CC50 at 3 days ([1]; numeric bounds): > 6.25 µM

NC1CC2CC[C@@H](C1)[C@H]2S(=O)(=O)c1cc(C(=O)Nc2cc(F)c(F)c(F)c2)ccc1Cl (stereo partly shown) [Example 298]
EC50 (HBV; [2]): 0.1 to 0.4 µM | CC50 at 3 days ([1]; class symbols): 10 to 25 µM

CS(=O)(=O)NC1CC2CC[C@@H](C1)[C@H]2S(=O)(=O)c1cc(C(=O)Nc2cc(F)c(F)c(F)c2)ccc1Cl (stereo partly shown) [Example 299]
EC50 (HBV; [2]): < 0.1 µM | CC50 at 3 days ([1]; class symbols): > 25 µM

COC(=O)N[C@@H](C(=O)NC1CC2CC[C@@H](C1)[C@H]2S(=O)(=O)c1cc(C(=O)Nc2cc(F)c(F)c(F)c2)ccc1Cl)C(C)C (stereo partly shown) [Example 300]
EC50 (HBV; [2]): < 0.1 µM | CC50 at 3 days ([1]; numeric bounds): > 6.25 µM

O=C(Nc1cc(F)c(F)c(F)c1)c1ccc(Cl)c(S(=O)(=O)[C@H]2CC3CCC(C2)[C@@]3(O)c2nccs2)c1 [Example 301]
EC50 (HBV; [2]): > 0.4 µM | CC50 at 3 days ([1]; class symbols): 10 to 25 µM

O=C(Nc1cc(F)c(F)c(F)c1)c1ccc(Cl)c(S(=O)(=O)[C@H]2CC3CCC(C2)[C@]3(O)c2ncc[nH]2)c1 [Example 302]
EC50 (HBV; [2]): < 0.1 µM | CC50 at 3 days ([1]; class symbols): 10 to 25 µM

O=C(Nc1cc(F)c(F)c(F)c1)c1ccc(Cl)c(S(=O)(=O)[C@H]2CC3CCC(C2)[C@H]3c2ncc[nH]2)c1 [Example 303]
EC50 (HBV; [2]): < 0.1 µM | CC50 at 3 days ([1]; class symbols): < 10 µM

[N-]=[N+]=NC[C@@H]1CC2CC[C@@H](C1)[C@H]2S(=O)(=O)c1cc(C(=O)Nc2cc(F)c(F)c(F)c2)ccc1Cl [Example 304]
EC50 (HBV; [2]): 0.1 to 0.4 µM | CC50 at 3 days ([1]; numeric bounds): > 6.25 µM

O=C1NC[C@@]2(CC3CC[C@@H](C2)[C@H]3S(=O)(=O)c2cc(C(=O)Nc3cc(F)c(F)c(F)c3)ccc2Cl)O1 [Example 306]
EC50 (HBV; [2]): < 0.1 µM | CC50 at 3 days ([1]; numeric bounds): > 12.5 µM

CS(=O)(=O)NC[C@]1(O)CC2CC[C@@H](C1)[C@H]2S(=O)(=O)c1cc(C(=O)Nc2cc(F)c(F)c(F)c2)ccc1Cl [Example 307]
EC50 (HBV; [2]): < 0.1 µM | CC50 at 3 days ([1]; class symbols): > 25 µM

O=C(Nc1cc(F)c(F)c(F)c1)c1ccc(Cl)c(S(=O)(=O)[C@H]2CC3CCC(C2)[C@]3(O)c2ccccn2)c1 [Example 308]
EC50 (HBV; [2]): < 0.1 µM | CC50 at 3 days ([1]; class symbols): > 25 µM

COC(=O)N[C@H]1C2CCC1C[C@@H](S(=O)(=O)c1cc(C(=O)Nc3cc(F)c(F)c(F)c3)ccc1Cl)C2 [Example 309]
EC50 (HBV; [2]): < 0.1 µM | CC50 at 3 days ([1]; class symbols): > 25 µM

CS(=O)(=O)N[C@@H]1C2CC[C@H]1C[C@H](S(=O)(=O)c1cc(C(=O)Nc3cc(F)c(F)c(F)c3)ccc1Cl)C2 [Example 310]
EC50 (HBV; [2]): < 0.1 µM | CC50 at 3 days ([1]; class symbols): > 25 µM

O=C(Nc1cc(F)c(F)c(F)c1)c1ccc(Cl)c(S(=O)(=O)[C@H]2C3CC[C@H]2C[C@H](Cn2ccnc2)C3)c1 [Example 312]
EC50 (HBV; [2]): < 0.1 µM | CC50 at 3 days ([1]; class symbols): 10 to 25 µM

O=C(Nc1cc(F)c(F)c(F)c1)c1ccc(Cl)c(S(=O)(=O)[C@H]2C3CC[C@H]2C[C@](O)(Cn2cccn2)C3)c1 [Example 313]
EC50 (HBV; [2]): < 0.1 µM | CC50 at 3 days ([1]; numeric bounds): > 6.25 µM

O=C(Nc1cc(F)c(F)c(F)c1)c1ccc(Cl)c(S(=O)(=O)[C@H]2C3CC[C@H]2C[C@](O)(COCc2ccccn2)C3)c1 [Example 317]
EC50 (HBV; [2]): < 0.1 µM | CC50 at 3 days ([1]; class symbols): < 10 µM

O=C(Nc1cc(F)c(F)c(F)c1)c1ccc(Cl)c(S(=O)(=O)[C@H]2C3CC[C@H]2C[C@](O)(COCCO)C3)c1 [Example 319]
EC50 (HBV; [2]): < 0.1 µM | CC50 at 3 days ([1]; class symbols): > 25 µM

COC(=O)NC1CC2CC[C@@H](C1)[C@H]2S(=O)(=O)c1cc(C(=O)Nc2cc(F)c(F)c(F)c2)ccc1Cl (stereo partly shown) [Example 321]
EC50 (HBV; [2]): < 0.1 µM | CC50 at 3 days ([1]; class symbols): > 25 µM

O=C(Nc1cc(F)c(F)c(F)c1)c1ccc(Cl)c(S(=O)(=O)[C@H]2CC3CCC(C2)[C@]3(O)c2nccs2)c1 [Example 322]
EC50 (HBV; [2]): < 0.1 µM | CC50 at 3 days ([1]; class symbols): 10 to 25 µM

O=C(Nc1cc(F)c(F)c(F)c1)c1ccc(Cl)c(S(=O)(=O)[C@H]2CC3CCC(C2)[C@]3(O)CO)c1 [Example 324]
EC50 (HBV): < 0.1 µM | CC50 at 3 days ([1]; numeric bounds): > 12.5 µM

Cn1ccnc1[C@]1(O)CC2CC[C@@H](C1)[C@H]2S(=O)(=O)c1cc(C(=O)Nc2cc(F)c(F)c(F)c2)ccc1Cl [Example 329]
EC50 (HBV; [2]): < 0.1 µM | CC50 at 3 days ([1]; numeric bounds): > 6.25 µM

O=C(Nc1cc(F)c(F)c(F)c1)c1ccc(Cl)c(S(=O)(=O)[C@H]2C3CC[C@H]2C[C@](O)(c2ncc(-c4ccccc4)[nH]2)C3)c1 [Example 330]
EC50 (HBV; [2]): < 0.1 µM | CC50 at 3 days ([1]; class symbols): < 10 µM

O=C(Nc1cc(F)c(F)c(F)c1)c1ccc(Cl)c(S(=O)(=O)[C@H]2CC3CCC(C2)[C@]3(O)c2cccnc2)c1 [Example 331]
EC50 (HBV; [2]): < 0.1 µM | CC50 at 3 days ([1]; class symbols): 10 to 25 µM

O=C(Nc1cc(F)c(F)c(F)c1)c1ccc(Cl)c(S(=O)(=O)[C@H]2CC3CCC(C2)[C@]3(O)c2ccncc2)c1 [Example 332]
EC50 (HBV; [2]): < 0.1 µM | CC50 at 3 days ([1]; class symbols): 10 to 25 µM
